Assays:
MCF-7 = details: cited from earlier work
[1] = Amino acids level measurement (LC-MS); format: cell-based; details: Torin1-treated cells
Description: Metabolic analysis was carried out as previously described (MacKay et al., 2015). Briefly, cells were rapidly washed 3 times with ice-cold PBS and extracted with an aqueous solution of 50% Methanol, and 30% Acetonitrile. Samples were centrifuged at 16,000×g for 10 min at 4° C., and the supernatants were analyzed using HPLC-MS (Q-Exactive Orbitrap Mass Spectrometer (Thermo Scientific) coupled to Thermo Scientific UltiMate 3000 HPLC system). The HPLC setup consisted of a ZIC-pHILIC column (SeQuant, 150×2.1 mm, 5 μm, Merck) with a ZIC-pHILIC guard column (SeQuant, 20×2.1 mm). The aqueous mobile phase solvent was 20 mM ammonium carbonate adjusted to pH 9.4 with 0.1% ammonium hydroxide. The organic mobile phase was acetonitrile. […] All metabolites were detected across a mass range of 75-1,000 m/z using the Q-Exactive mass spectrometer at a resolution of 35,000 (at 200 m/z) with electrospray ionization and polarity switching mode. […] The peak areas of different Amino Acids were determined using Thermo TraceFinder software through which metabolites were identified by the exact mass of the singly charged ion and by known retention time on the HPLC column. Commercially available standard compounds had been analyzed before to determine ion masses and retention times on the ZIC-pHILIC column. Protein quantitation based on the Lowry method was performed for normalization.

exportin-1 = target: T1, exportin-1 (Homo sapiens, UniProt O14980); test: Nuclear export of exportin-1 substrates (p65, APC, NES-GFP) in HeLa cells; format: cell-based; details: 8 h
T1 construct: endogenous in cells; host or cells: HeLa
T1 sequence (O14980 whole entry): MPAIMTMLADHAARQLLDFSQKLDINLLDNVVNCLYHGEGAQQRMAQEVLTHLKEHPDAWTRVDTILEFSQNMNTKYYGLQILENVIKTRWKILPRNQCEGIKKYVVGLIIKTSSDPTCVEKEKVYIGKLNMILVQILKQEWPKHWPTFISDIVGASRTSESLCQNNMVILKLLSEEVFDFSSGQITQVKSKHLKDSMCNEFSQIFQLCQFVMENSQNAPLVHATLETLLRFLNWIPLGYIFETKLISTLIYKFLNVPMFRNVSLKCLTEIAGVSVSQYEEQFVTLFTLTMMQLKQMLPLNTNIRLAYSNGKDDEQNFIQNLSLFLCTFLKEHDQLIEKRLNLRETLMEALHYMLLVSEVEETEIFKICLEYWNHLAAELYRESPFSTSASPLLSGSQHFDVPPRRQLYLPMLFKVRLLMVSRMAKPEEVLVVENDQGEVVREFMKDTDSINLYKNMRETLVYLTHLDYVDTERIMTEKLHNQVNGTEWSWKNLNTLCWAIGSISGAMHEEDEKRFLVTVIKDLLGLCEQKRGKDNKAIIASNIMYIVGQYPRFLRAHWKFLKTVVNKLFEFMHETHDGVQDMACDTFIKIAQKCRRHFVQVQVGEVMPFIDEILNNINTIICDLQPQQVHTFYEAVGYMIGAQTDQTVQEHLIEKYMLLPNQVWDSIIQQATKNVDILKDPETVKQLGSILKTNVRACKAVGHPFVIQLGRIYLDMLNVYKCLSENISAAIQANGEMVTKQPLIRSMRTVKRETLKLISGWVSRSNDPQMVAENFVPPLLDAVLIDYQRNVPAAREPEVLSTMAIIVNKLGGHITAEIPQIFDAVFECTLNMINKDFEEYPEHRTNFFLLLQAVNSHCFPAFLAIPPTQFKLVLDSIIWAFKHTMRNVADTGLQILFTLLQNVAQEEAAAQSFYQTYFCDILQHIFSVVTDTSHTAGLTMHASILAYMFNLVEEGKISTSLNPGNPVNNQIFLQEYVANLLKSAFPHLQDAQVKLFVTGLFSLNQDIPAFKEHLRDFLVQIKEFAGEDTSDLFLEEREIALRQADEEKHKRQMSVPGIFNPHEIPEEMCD
Description: FIG. 4G. HeLa cells were incubated under the indicated conditions, and the β4 subunit of the proteasome as well as the p65 subunit of NF-κB—which is a CRM1 substrate—were visualized.
FIG. 4H. HeLa cells were incubated under the indicated conditions, and the β4 subunit of the proteasome as well as the CRM1 substrate APC (adenomatous polyposis coli) were visualized.
FIG. 4I. HeLa cells infected with GFP fused to a nuclear export signal (NES) were incubated for 8h under the indicated conditions. The GFP was visualized.
(§1) Cells were seeded on glass cover slips for 36 h. Following the indicated treatments, they were fixed with 4% PFA for 15 min, washed with (phosphate-buffered saline) PBS and incubated in PBS containing 10% goat serum for 1h at room temperature, followed by 2 h incubation with the indicated primary antibody. Following extensive wash with PBS, the fixed cells were incubated with the relevant secondary antibody for 1 h, washed and mounted. Images were acquired using Zeiss LSM 700 confocal microscope (Zeiss, Oberkochen, Germany).

proteasome = test: Live imaging of proteasome activity probe Me4BodipyFL-Ahx3Leu3VS in cells; format: cell-based; details: added to the starvation medium
Description: Live cell proteasome activity was followed as previously described (Berkers et al., 2007, Mol Pharm; 4(5):739-48.). In brief, Me4BodipyFL-Ahx3Leu3VS was added to the medium to a final concentration of 1 μM. Following incubation for 15 min, the cells were visualized by a Zeiss LSM 700 confocal microscope. In vitro proteasome activity assay was carried out as previously described (Braten et al., 2016). In brief, cellular fractions were incubated at 37° C. for 30 min with 5 μM Suc-LLVY-AMC (Succinyl-Lu-Leu-Val-Tyr-amido-4-methylcoumarin) in a reaction buffer (40 mM Tris-HCl pH 7.2, 2 mM DTT, 5 mM MgCl2, 10 mM creatine phosphate, 0.1 mg/ml creatine phosphate kinase, 5 mM ATP). Reactions were stopped by adding 1% SDS, and fluorescence was measured at 360 nm/460 nm (ex/em).

26S proteasome = test: Proteasome subcellular localization in cultured cells (immunofluorescence, western blot of nuclear fractions); format: cell-based; details: for starvation-induced proteasome translocation from the nucleus to the cytosol: substance added to amino acid starvation medium, 8 h
Description: as §1
The proteasome subunits α6, β1, and PSMD1 were visualized via indirect immunofluorescence, using primary and secondary antibodies listed under Key Resources Table. To observe the proteasome in live cells, we expressed the cDNAs of the β4, Rpn2, Rpn6, and Rpn13 proteasome subunits C-terminally fused with GFP. Photoconversion of proteasome-fused Dendra2 was carried out as previously described (McKinney et al., 2009 Nat Methods. 131-133).
Cells were incubated for 20 min in fractionation buffer [20 mM HEPES pH 7.3, 10 mM KCl, 5 mM ATP, 5 mM MgCl2, and protease inhibitor cocktail (Roche)], followed by the addition of NP-40 (to 0.1%). They were then mixed thoroughly and centrifuged at 1,000×g for 5 min. The supernatant was collected as cytosolic fraction, and the pellet (nuclei) was washed twice with PBS. To dissolve the nuclear pellet, fractionation buffer supplemented with 0.5% sodium deoxycholate was added followed by sonication.
(§2) Cells were washed twice with ice cold PBS and scraped into lysis buffer (50 mM Tris-HCl, pH 7.4, 130 mM NaCl, 0.5% NP-40) supplemented with freshly added protease inhibitor cocktail, 5 mM ATP, 10 mM iodoacetamide, and 5 mM N-ethyl maleimide. Protein concentration was measured by the BCA assay according to the manufacturer's instructions (Pierce, Rockford, IL). 30 μg of cellular protein were resolved via SDS-PAGE, transferred to a nitrocellulose membrane and immunoblotted with the appropriate antibody.

cellular proteins [2] = test: Proteomic analysis of cellular protein levels; format: cell-based, human; details: amino acid starvation
Description: 2-3 mg of cell extract protein in 8 M Urea and 100 mM ammonium bicarbonate, were incubated with DTT (2.8 mM; 30 min at 60° C.), modified with iodoacetamide (8.8 mM; 30 min at room temperature in the dark), and digested (overnight at 37° C.) with modified trypsin (Promega; 1:50 enzyme-to-substrate ratio) in 2 M Urea and 25 mM ammonium bicarbonate. Additional second trypsinization was carried out for 4 hours. The tryptic peptides were desalted using Sep-Pak C18 (Waters) and dried. 10 μg of protein were used for proteome analysis as described under Mass spectrometry.
Tryptic peptides were analyzed by LC-MS/MS using a Q Exactive plus mass spectrometer (Thermo Fisher Scientific) fitted with a capillary HPLC (easy nLC 1000, Thermo). […]
The mass spectrometry raw data were analyzed by the MaxQuant software (version 1.4.1.2, http://www.maxquant.org) for peak picking and quantification. […] The MaxQuant software was used for label-free semi-quantitative analysis [based on extracted ion currents (XICs) of peptides], enabling quantification from each LC/MS run for each peptide identified in any of the experiments. In samples that were SILAC-labeled, quantification was also carried out using the MaxQuant software. […]

ubiquitin adducts = test: Western blot for ubiquitin adducts; format: cell-based; details: starved cells
Description: FIG. 5E. Western blot for ubiquitin adducts of extracts of cells treated as indicated. Intensities relative to control are presented.
as §2

cellular proteins [3] = test: Degradation of radiolabeled cellular proteins; format: cell-based; details: starved cells
Description: Cells were labeled with […] methionine and cysteine (20 μCi/ml) for 16 h. This was followed extensive washing and further incubation in a medium containing 2 mM of the two unlabeled amino acids for 8 h. Degradation rates were assessed by determining the release of labeled amino acids to the incubation medium relative to the radioactivity remained in the cellular proteins (using Trichloroacetic acid precipitation to separate between the two) (Gropper et al., 1991, JPEN J Parenter Enteral Nutr 15, 48-53.).

tumors = test: Tumor model in mice, YWF versus various concentrations of F; format: in vivo; details: various concentrations up to 45 mM
Description: The anti-tumorigenic effect of the indicated treatments was examined in vivo, using a tumor model in mice.
The inventors next aimed to assess the anti-tumorigenic effect of the above treatments in vivo, using a tumor model in mice. Following tumor formation, each group was treated with a different treatment, and the size of tumors was eventually compared relative to the control group (QLR).

cancer cells = test: Cell viability of stressed (starved) and non-stressed cancer cells, YWF versus 45 mM F or W
Description: Since tumor cells are inherently stressed—due to high metabolic demands and poor perfusion of nutrients and oxygen, starved cells in culture were used in order to simulate the effect of the different treatments. Similarly, to simulation of the effect of each treatment on “normal” tissues in vivo—which are not stressed—the same amino acid(s) were added to non-starved cells in culture.

| Compound | growth of MCF-7 cells (MCF-7) | gain in amino acids produced by Torin1 [1] | cellular distribution of GFP fused to nuclear export signal (NES) (exportin-1) | migration of proteasomal activity from the nucleus (proteasome) | proteasome distribution in cells lacking NUP93 (26S proteasome; NUP93 silenced, starvation) | proteasome localization without exogenous starvation (26S proteasome; non-stressed cells, complete medium) | starvation-induced proteasome translocation from the nucleus to the cytosol (26S proteasome) | starvation-induced reduction in the level of ~900 proteins (cellular proteins [2]) | degradation and depletion of ubiquitin adducts (ubiquitin adducts) | starvation-induced stimulation of protein breakdown (cellular proteins [3]) | benefit on tumor growth relative to control group (QLR) (tumors) | elimination of stressed cancerous cells in culture (cancer cells) |
| --- | --- | --- | --- | --- | --- | --- | --- | --- | --- | --- | --- | --- |
| N[C@@H](Cc1c[nH]c2cccc(F)c12)C(=O)O [L-(4-F) Trp] | completely inhibited the growth |  |  |  |  |  |  |  |  |  |  |  |
| CCC(=C/[C@H](C)C/C=C/C(C)=C/[C@@H](C)C(=O)[C@@H](C)[C@H](O)[C@@H](C)C/C(C)=C/C(=O)O)/C=C/[C@@H]1OC(=O)C=C[C@@H]1C [LMB, Leptomycin B] |  | significantly inhibits the gain in amino acids | leads to nuclear accumulation | inhibits the migration of proteasomal activity from the nucleus | neither YWF nor LMB had a significant effect on its distribution | nuclear accumulation of the proteasome | inhibition of the translocation | prevented | inhibits degradation and depletion of ubiquitin adducts | inhibition of starvation-induced stimulation of protein breakdown |  |  |
| N[C@@H](Cc1ccccc1)C(=O)O [Phe, Phenylalanine] |  |  |  |  |  |  | significant effect |  |  |  | did not result in any benefit | clearly inferior to the mixture of YWF |

Source: patent US20230330064A1, “TYROSINE, TRYPTOPHAN AND PHENYLALANINE AS mTOR AGONISTS MEDIATING PROTEASOME DYNAMICS, COMPOSITIONS, METHODS AND USES THEREOF IN THERAPY, AND PROGNOSTIC METHODS FOR DRUG-RESISTANCE” (Technion Research & Development Foundation Limited, priority 2020, published 2023)
